Assay results as given in ChEMBL document CHEMBL3885881, “DrugMatrix”.

Species: Rattus norvegicus
Assay: DrugMatrix - Regimen: Daily Repeat
Type: toxicity, organism-based, Sprague-Dawley
Parameters: regimen Daily Repeat, gender Male, age 6-8 weeks
Conditions: in vivo, sc, […], route mini-PUMP - SUBCUTANEOUS, dose 0.065 mg/Kg, dose level High, vehicle 100 % SALINE; for ABSOLUTE BASOPHIL / ABSOLUTE EOSINOPHIL / ABSOLUTE LYMPHOCYTE / ABSOLUTE MONOCYTE / ABSOLUTE SEGMENTED NEUTROPHIL / BASOPHIL / EOSINOPHIL / ERYTHROCYTE COUNT / HEMATOCRIT / HEMOGLOBIN / LEUKOCYTE COUNT / LYMPHOCYTE / MEAN CORPUSCULAR HEMOGLOBIN / MEAN CORPUSCULAR HEMOGLOBIN CONCENTRATION / MEAN CORPUSCULAR VOLUME / MONOCYTE / NEUTROPHIL / NUCLEATED RED BLOOD CELLS / PLATELET COUNT: tissue Blood; for ALANINE AMINOTRANSFERASE / ALBUMIN / ALKALINE PHOSPHATASE / ASPARTATE AMINOTRANSFERASE / BLOOD UREA NITROGEN / CARBON DIOXIDE / CHLORIDE / CHOLESTEROL / CREATININE / GLUCOSE / LACTATE DEHYDROGENASE / LIPASE / PHOSPHORUS / POTASSIUM / SODIUM / TOTAL BILIRUBIN / TOTAL PROTEIN / URIC ACID: tissue Plasma

SMILES: C[C@]12CCC(=O)C=C1CC[C@@H]1[C@@H]2[C@@H](O)C[C@]2(C=O)[C@@H](C(=O)CO)CC[C@@H]12 [ALDOSTERONE]
- ABSOLUTE BASOPHIL (72 h, time 3 day): 0 CELLS/uL
- ABSOLUTE EOSINOPHIL (72 h, time 3 day): 0 CELLS/uL
- ABSOLUTE LYMPHOCYTE (72 h, time 3 day): 11286 CELLS/uL
- ABSOLUTE MONOCYTE (72 h, time 3 day): 180.67 CELLS/uL
- ABSOLUTE SEGMENTED NEUTROPHIL (72 h, time 3 day): 1866.67 CELLS/uL
- BASOPHIL (72 h, time 3 day): 0%
- EOSINOPHIL (72 h, time 3 day): 0%
- ERYTHROCYTE COUNT (72 h, time 3 day): 5.69 x10E6/uL
- HEMATOCRIT (72 h, time 3 day): 34.17%
- HEMOGLOBIN (72 h, time 3 day): 12.73 G/DL
- LEUKOCYTE COUNT (72 h, time 3 day): 13.33 x10E3/uL
- LYMPHOCYTE (72 h, time 3 day): 84.67%
- MEAN CORPUSCULAR HEMOGLOBIN (72 h, time 3 day): 22.37 pg
- MEAN CORPUSCULAR HEMOGLOBIN CONCENTRATION (72 h, time 3 day): 37.3 G/DL
- MEAN CORPUSCULAR VOLUME (72 h, time 3 day): 60.03 fL
- MONOCYTE (72 h, time 3 day): 1.33%
- NEUTROPHIL (72 h, time 3 day): 14%
- NUCLEATED RED BLOOD CELLS (72 h, time 3 day): 0.33 /100WBC
- PLATELET COUNT (72 h, time 3 day): 1067.67 x10E3/uL
- ALANINE AMINOTRANSFERASE (72 h, time 3 day): 52.33 u/L
- ALBUMIN (72 h, time 3 day): 3.8 G/DL
- ALKALINE PHOSPHATASE (72 h, time 3 day): 293.67 u/L
- ASPARTATE AMINOTRANSFERASE (72 h, time 3 day): 90 u/L
- BLOOD UREA NITROGEN (72 h, time 3 day): 15.67 mg/dL
- CARBON DIOXIDE (72 h, time 3 day): 32 mmol/L
- CHLORIDE (72 h, time 3 day): 100 MEQ/L
- CHOLESTEROL (72 h, time 3 day): 66.33 mg/dL
- CREATININE (72 h, time 3 day): 0.14 mg/dL
- GLUCOSE (72 h, time 3 day): 146 mg/dL
- LACTATE DEHYDROGENASE (72 h, time 3 day): 443 u/L
- LIPASE (72 h, time 3 day): 9.33 u/L
- PHOSPHORUS (72 h, time 3 day): 11.27 mg/dL
- POTASSIUM (72 h, time 3 day): 5.07 MEQ/L
- SODIUM (72 h, time 3 day): 146.93 MEQ/L
- TOTAL BILIRUBIN (72 h, time 3 day): 0.2 mg/dL
- TOTAL PROTEIN (72 h, time 3 day): 5.73 G/DL
- URIC ACID (72 h, time 3 day): 1.5 mg/dL
- ABSOLUTE BASOPHIL (120 h, time 5 day): 0 CELLS/uL
- ABSOLUTE EOSINOPHIL (120 h, time 5 day): 69 CELLS/uL
- ABSOLUTE LYMPHOCYTE (120 h, time 5 day): 17030 CELLS/uL
- ABSOLUTE MONOCYTE (120 h, time 5 day): 489 CELLS/uL
- ABSOLUTE SEGMENTED NEUTROPHIL (120 h, time 5 day): 1812 CELLS/uL
- BASOPHIL (120 h, time 5 day): 0%
- EOSINOPHIL (120 h, time 5 day): 0.33%
- ERYTHROCYTE COUNT (120 h, time 5 day): 5.8 x10E6/uL
- HEMATOCRIT (120 h, time 5 day): 34.77%
- HEMOGLOBIN (120 h, time 5 day): 12.97 G/DL
- LEUKOCYTE COUNT (120 h, time 5 day): 19.4 x10E3/uL
- LYMPHOCYTE (120 h, time 5 day): 87.33%
- MEAN CORPUSCULAR HEMOGLOBIN (120 h, time 5 day): 22.4 pg
- MEAN CORPUSCULAR HEMOGLOBIN CONCENTRATION (120 h, time 5 day): 37.3 G/DL
- MEAN CORPUSCULAR VOLUME (120 h, time 5 day): 60.03 fL
- MONOCYTE (120 h, time 5 day): 2.67%
- NEUTROPHIL (120 h, time 5 day): 9.67%
- NUCLEATED RED BLOOD CELLS (120 h, time 5 day): 0 /100WBC
- PLATELET COUNT (120 h, time 5 day): 1473 x10E3/uL
- ALANINE AMINOTRANSFERASE (120 h, time 5 day): 47.67 u/L
- ALBUMIN (120 h, time 5 day): 3.77 G/DL
- ALKALINE PHOSPHATASE (120 h, time 5 day): 252 u/L
- ASPARTATE AMINOTRANSFERASE (120 h, time 5 day): 83 u/L
- BLOOD UREA NITROGEN (120 h, time 5 day): 11.33 mg/dL
- CARBON DIOXIDE (120 h, time 5 day): 36.33 mmol/L
- CHLORIDE (120 h, time 5 day): 96.67 MEQ/L
- CHOLESTEROL (120 h, time 5 day): 64.33 mg/dL
- CREATININE (120 h, time 5 day): 0.13 mg/dL
- GLUCOSE (120 h, time 5 day): 142.67 mg/dL
- LACTATE DEHYDROGENASE (120 h, time 5 day): 335 u/L
- LIPASE (120 h, time 5 day): 9 u/L
- PHOSPHORUS (120 h, time 5 day): 11.97 mg/dL
- POTASSIUM (120 h, time 5 day): 5.4 MEQ/L
- SODIUM (120 h, time 5 day): 147.3 MEQ/L
- TOTAL BILIRUBIN (120 h, time 5 day): 0.17 mg/dL
- TOTAL PROTEIN (120 h, time 5 day): 5.53 G/DL
- URIC ACID (120 h, time 5 day): 1.93 mg/dL
- ABSOLUTE BASOPHIL (time 14 day): 0 CELLS/uL
- ABSOLUTE EOSINOPHIL (time 14 day): 65.4 CELLS/uL
- ABSOLUTE LYMPHOCYTE (time 14 day): 13364.4 CELLS/uL
- ABSOLUTE MONOCYTE (time 14 day): 314 CELLS/uL
- ABSOLUTE SEGMENTED NEUTROPHIL (time 14 day): 2076.2 CELLS/uL
- BASOPHIL (time 14 day): 0%
- EOSINOPHIL (time 14 day): 0.6%
- ERYTHROCYTE COUNT (time 14 day): 6.35 x10E6/uL
- HEMATOCRIT (time 14 day): 37.42%
- HEMOGLOBIN (time 14 day): 13.62 G/DL
- LEUKOCYTE COUNT (time 14 day): 15.82 x10E3/uL
- LYMPHOCYTE (time 14 day): 84%
- MEAN CORPUSCULAR HEMOGLOBIN (time 14 day): 21.48 pg
- MEAN CORPUSCULAR HEMOGLOBIN CONCENTRATION (time 14 day): 36.4 G/DL
- MEAN CORPUSCULAR VOLUME (time 14 day): 59.08 fL
- MONOCYTE (time 14 day): 2%
- NEUTROPHIL (time 14 day): 13.4%
- NUCLEATED RED BLOOD CELLS (time 14 day): 0 /100WBC
- PLATELET COUNT (time 14 day): 1043.2 x10E3/uL
- ALANINE AMINOTRANSFERASE (time 14 day): 55.8 u/L
- ALBUMIN (time 14 day): 4.14 G/DL
- ALKALINE PHOSPHATASE (time 14 day): 346.6 u/L
- ASPARTATE AMINOTRANSFERASE (time 14 day): 86.8 u/L
- BLOOD UREA NITROGEN (time 14 day): 12.2 mg/dL
- CARBON DIOXIDE (time 14 day): 43 mmol/L
- CHLORIDE (time 14 day): 94.2 MEQ/L
- CHOLESTEROL (time 14 day): 64.6 mg/dL
- CREATININE (time 14 day): 0.17 mg/dL
- GLUCOSE (time 14 day): 150.2 mg/dL
- LACTATE DEHYDROGENASE (time 14 day): 88.6 u/L
- LIPASE (time 14 day): 9.2 u/L
- PHOSPHORUS (time 14 day): 11.36 mg/dL
- POTASSIUM (time 14 day): 4.4 MEQ/L
- SODIUM (time 14 day): 147.78 MEQ/L
- TOTAL BILIRUBIN (time 14 day): 0.14 mg/dL
- TOTAL PROTEIN (time 14 day): 6.2 G/DL
- URIC ACID (time 14 day): 1.72 mg/dL
